Results from US9446015B2, “Quinone based nitric oxide donating compounds for ophthalmic use” (NICOX SCIENCE IRELAND, priority 2012, dated 2016).

Experiments:
[1] = tested on: isolated aortas from rats; assay: Ex vivo tolerance evaluation, vascular response of isolated rat aortas; type: cell-based; details: 5-day oral treatment; 5-ISMN 30 mg/kg, Compound (6) 100 mg/kg
Description: (§1) Thoracic aortas from male New Zealand rabbits or male Sprague Dawley (SD) were used. The aortas were placed immediately in Krebs-HEPES buffer (pH 7.4; composition mM: NaCl 130.0, KCl 3.7, NaHCO3 14.9, KH2PO4 1.2, MgSO4.7H2O 1.2, Glucose 11.0, HEPES 10.0, CaCl2.2H2O 1.6). Connective tissue was removed and aortas were cut into ring segments (4-5 mm in length). Each ring was placed in a 5 mL tissue bath filled with Krebs-HEPES buffer (37° C.) aerated with 95% O2 and 5% CO2 and was attached to a force transducer (Grass FT03), connected to a BIOPAC MP150 System for measurement of the isometric tension. Preparations were allowed to equilibrate for 1 h at a resting tension of 2 g for rabbit aortas and 1 g for rat aortas with changes of the buffer every 15 min. Then the rings were stimulated by exposure to 90 mM KCl (3 times) with intervening washings.
(§2) Rat aorta. After equilibration, rat aortas were precontracted with KCl (90 mM) and, when the contraction was stable, a cumulative concentration-response curve to acetylcholine (ACh, 0.01-100 μM) was added. After washout, the rings were precontracted again with KCl (90 mM). When a steady-state level of contraction was obtained, a cumulative concentration-response curve to the tested compounds (0.01-100 μM) was obtained.
(§3) Data analysis. Results are given as mean±SEM. Vascular responses are expressed as percentage relaxation and plotted vs concentration. The sensitivity of isolated aorta to different vasodilators is expressed as the concentration that elicited 50% of the maximal responses (EC50). Responses are quantified in terms of EC50 and Emax (maximal vasodilating effect) values, obtained from the concentration-response curve by nonlinear curve fitting, using GraphPad software.
Tolerance to nitrate was further investigated assessing the vascular effects of Compound (6) following repeated treatment compared with 5-ISMN. The vascular response to the compound itself was assessed on isolated aortas from rats orally treated for 5 days with Compound (6) (100 mg/kg). The vascular response was performed as described in Example 6.
Vascular responses were performed 1 h (ISMN) or 3 h (Compound (6)) after the last administration, the concentrations of tested compound that elicited the 50% of the maximal responses (EC50) are shown in Table 4.

[2] = tested on: rat L-NAME-induced hypertension; assay: In vivo tolerance evaluation, L-NAME-induced hypertension after 5-day oral treatment; details: 5-ISMN 30 mg/kg, compound (6) 100 mg/kg
Description: (§4) Fasted male SD rats (250-300 g, n=3-5 per group), obtained from Harlan Italy (Correzzana, Milan, Italy) were orally treated with tested compounds or vehicle (DMSO:Methocel 1% 2/98 v/v) in a total volume of 4 ml/kg by gavage. At each time point (1, 3, 6 and 24 h) animals were deeply anesthetized with Zoletil® 100 (3 mg/kg), given intramuscularly. Thereafter, a pressure catheter (Samba Sensors, Harvard Apparatus, UK) was introduced into the common carotid artery for central blood pressure measurement. Pressure transducer was connected to a personal computer, in order to allow real time monitor of the pressure tracing. After 10 minutes of basal recording, L-NAME (50 mg/kg) was administered intraperitoneally and the effect on SBP monitored. When the SBP stabilized (5 minutes without variations) the recording was stopped. To further confirm that functional activity was NO-dependent, at each time point blood ^15N-nitrite levels were measured following the procedure described in Example 12.
To investigate whether the compound (6) induced nitrate tolerance, as observed for most of the drugs belonging to the nitrate class, the L-NAME-induced hypertension rat model described in Example 7 was performed following a repeated oral treatment. Rats were orally treated for 5 days with vehicle, compound (6) (100 mg/kg) or 5-ISMN (30 mg/kg). […] The experiments were performed at the peak effect (1 hour for 5-ISMN and 3 hours for Compound (6)), results are reported in Table 3.

[3] = tested on: ocular normotensive New Zealand rabbits; assay: IOP lowering activity in ocular normotensive New Zealand rabbits; type: in vivo, New Zealand White rabbits
Description: Intraocular pressure (IOP) lowering activity in ocular normotensive New Zealand rabbits.
• compound (6) • timolol that is a drug commonly used for the treatment of glaucoma and ocular hypertension. • Isosorbide mononitrate (5-ISMN) that is a commonly used nitric oxide donor drug.
Timolol, dorzolamide and 5-ISMN were tested as reference compounds. Adults male New Zealand White rabbits weighting 1.8-2.0 Kg were used in the experiments.
IOP was measured using a pneumatonometer 30 CLASSIC™ before topical application (basal) and a different time point (30, 60, 120, 240 and 300 min) thereafter. Vehicle (5% cremophor-EL; 0.3% DMSO; 0.2 mg/ml BAK in PBS pH 6.0) or tested compounds dissolved in the vehicle were instilled as eye drops into the conjunctiva pocket. Eyes were randomly assigned to different treatment groups. One drop of 0.4% oxybuprocaine hydrochloride (Novesine, Sandoz) was instilled in each eye immediately before each set of pressure measurements.
The test results are reported in Table 7, the ocular hypotensive activity is expressed as IOP changes at 30, 60, 120 and 300 minutes after topical administration versus vehicle and versus IOP at basal.

[4] = tested on: endothelial-dependent vasodilation of rat aortas; assay: Endothelial dysfunction evaluation, vascular response to acetylcholine; type: cell-based; details: 5-day treatment; 5-ISMN 30 mg/kg, Compound (6) 100 mg/kg
Description: as §1, §2, §3
Endothelial-dependent vasodilation (vascular response to acetylcholine, ACh) was assessed following 5-day treatment with Compound (6) (100 mg/kg) or 5-ISMN (30 mg/kg). A relaxant response to ACh indicated the presence of a functional endothelium. The vascular response was performed as described in Example 6.

[5] = tested on: rat L-NAME-induced hypertension; assay: Systolic blood pressure in rat L-NAME-induced hypertension, single oral dose; type: in vivo; details: Comp. (6) 100 mg/kg oral; 3 hours
Description: To assess the in vivo NO-dependent activity, Compound (6) was evaluated for systolic blood pressure (SBP) reduction efficacy in a rat model of NO-deprivation induced by L-NAME and compared with 5-ISMN.
as §4

With `COC1=C(OC)C(=O)C(CCCCCCCCCCO[N+](=O)[O-])=C(C)C1=O` [Compound (6), 10-(4,5-dimethoxy-2-methyl-3,6-dioxocyclohexa-1,4-dienyl)decyl nitrate] the “vascular sensitivity of aortas of treated animals to the compound itself versus vehicle/control arteries” value [1] was “showed the same sensitivity”, the “efficacy in preventing L-NAME-induced hypertension after 5-day oral treatment” value [2] was “counteracted L-NAME-induced hypertension” and the “ΔΔ (mmHg), IOP change versus vehicle and versus IOP at basal” value ([3]; 30 min after topical administration) was −1.8 ± 0.4 mmHg. For the same compound, the “ΔΔ (mmHg), IOP change versus vehicle and versus IOP at basal” value ([3]; 60 min after topical administration) was −1.6 ± 0.3 mmHg, the “ΔΔ (mmHg), IOP change versus vehicle and versus IOP at basal” value ([3]; 120 min after topical administration) was −1.3 ± 0.5 mmHg and the “ΔΔ (mmHg), IOP change versus vehicle and versus IOP at basal” value ([3]; 300 min after topical administration) was −1.5 ± 0.4 mmHg. For the same compound, the “effect on endothelial-dependent vasorelaxation (response to ACh)” value [4] was “did not modify endothelial-dependent vasorelaxation” and the “Delta vs basal (mmHg), systolic blood pressure” value [5] was 14 ± 3.8 mmHg.
